In US11142527B2, “Dihydropyrimidine compounds and uses thereof in medicine” (SUNSHINE LAKE PHARMA CO., LTD., priority 2017, dated 2021):

These molecules were tested on HBV (assay: Test of anti HBV activity in vitro (viral DNA by qPCR)). Settings: Hepatitis B virus; HepG2.2.15 cells, viral DNA in cell culture supernatant by qPCR; read-out: EC50 values of the compound of the invention on viral replication.
Format: cell-based
Procedure: Test 1: Test Method of Calculating Anti HBV EC50
HBV Cell Line and Culture Conditions
HepG2.2.15 (SELLS, PNAS, 1987 and SELLS, JV, 1988) chromosomes have an integrated complete HBV genome, and stably express viral RNA and viral protein. HepG2.2.15 cells can secrete mature HBV particles, HBsAg and HBeAg, to medium. HepG2.2.15 cells were cultured in DMEM containing 10% fetal bovine serum, 100 U/mL penicillin, 100 U/mL streptomycin, 1% non essential amino acid, 1 mM sodium pyruvate and 300 μg/mL G418.
Viral particles DNA secreted from HepG2.2.15 cells can be quantified by qPCR, and the effect of the compound on viral replication can be detected.
Test of Anti HBV Activity In Vitro
8000 HepG 2.2.15 cells per well were seeded into a 96-well plate, the plate was cultured at 37° C. and 5% CO2 for 3 days till the cells grew to full wells. Old liquid medium can be removed and replaced with new medium (200 μL) on day 0.
Formulating the compound and treating the cells in the experiment of anti virus: the compound was dissolved in DMSO to a concentration of 30 mM, and then the compound solution was diluted with DMSO to a concentration of 800 μM, and then eight dilutions at 4 fold were performed, the highest concentration is 800 μM. The serial diluted compound was added to the above plate at 1 μL per well, the highest final concentration in the experiment is 4 μM (200 fold dilution). TDF (tenofovir dipiroxil fumarate, Selleck, Cat S1400) has a highest concentration of 4 μM as a positive control. 1 μL of DMSO was added in to the […] at a final concentration of 0.5%, TDF was added in to the […] at a final concentration of 1 μM.
Detection of Viral Genomic DNA by aPCR
Primer: HBV-For-202, […]; HBV-Rev-315, […]. Copies of virus can be calculated using a standard curve plotted by using plasmid containing HBV genome and using SYBR Premix Ex Taq II—Takara DRR081S kit and 1 μL cell culture supernatant as a template. EC50 values of the compound on viral replication were calculated by a four parametric nonlinear regression model using Graphpad Prism 5 software to manage concentration—viral copy number.

| SMILES | EC50 [nM] |
| --- | --- |
| COC(=O)C1=C(CN2CCN3C(=O)N(C(C)(C)c4ccc(-c5ccc(C(=O)O)cc5)cc4)C[C@@H]3C2)NC(c2nccs2)=N[C@H]1c1ccc(F)cc1Cl (stereo in doubt) [Example 11, 4′-(2-((S)-7-(((R)-6-(2-chloro-4-fluorophenyl)-5-(methoxycarbonyl)-2-(thiazol-2-yl)-3,6-dihydropyrimidin-4-yl)methyl)-3-oxohexahydroimidazo[1,5-a]pyrazin-2(3H)-yl)prop-2-yl)-[1,1′-diphenyl]-4-carboxylic acid] | 32.5 |
| COC(=O)C1=C(CN2CCN3C(=O)N(CC#Cc4ccc(C(=O)O)cc4)C[C@@H]3C2)NC(c2nccs2)=N[C@H]1c1ccc(F)cc1Cl [Example 1, 4-(3-((S)-7-(((R)-6-(2-chloro-4-fluorophenyl)-5-(methoxycarbonyl)-2-(thiazol-2-yl)-3,6-dihydropyrimidin-4-yl)methyl)-3-oxohexahydroimidazo[1,5-a]pyrazin-2(3H)-yl)prop-1-yn-1-yl)benzoic acid] | 8.45 |
| COC(=O)C1=C(CN2CCN3C(=O)N(CC#Cc4cccc(C(=O)O)c4)C[C@@H]3C2)NC(c2nccs2)=N[C@H]1c1ccc(F)cc1Cl [Example 2, 3-(3-((S)-7-(((R)-6-(2-chloro-4-fluorophenyl)-5-(methoxycarbonyl)-2-(thiazol-2-yl)-3,6-dihydropyrimidin-4-yl)methyl)-3-oxohexahydroimidazo[1,5-a]pyrazin-2(3H)-yl)prop-1-yn-1-yl)benzoic acid] | 10.4 |
| COC(=O)C1=C(CN2CCN3C(=O)N(CC#Cc4ccc(C(=O)O)cc4F)C[C@@H]3C2)NC(c2nccs2)=N[C@H]1c1ccc(F)cc1Cl [Example 4, 4-(3-((S)-7-(((R)-6-(2-chloro-4-fluorophenyl)-5-(methoxycarbonyl)-2-(thiazol-2-yl)-3,6-dihydropyrimidin-4-yl)methyl)-3-oxohexahydroimidazo[1,5-a]pyrazin-2(3H)-yl)prop-1-yn-1-yl)-3-fluorobenzoic acid] | 19.8 |
| COC(=O)C1=C(CN2CCN3C(=O)N(c4ccc(Oc5ccc(C(=O)O)cc5)cc4)C[C@@H]3C2)NC(c2nccs2)=N[C@H]1c1ccc(F)cc1Cl [Example 6, 4-(4-((S)-7-(((R)-6-(2-chloro-4-fluorophenyl)-5-(methoxycarbonyl)-2-(thiazol-2-yl)-3,6-dihydropyrimidin-4-yl)methyl)-3-oxohexahydroimidazo[1,5-a]pyrazin-2(3H)-yl)phenoxy) benzoic acid] | 14 |
| COC(=O)C1=C(CN2CCN3C(=O)N(c4ccc(Oc5ccc(C(=O)O)cc5)nc4)C[C@@H]3C2)NC(c2nccs2)=N[C@H]1c1ccc(F)cc1Cl [Example 7, 4-((5-((S)-7-(((R)-6-(2-chloro-4-fluorophenyl)-5-(methoxycarbonyl)-2-(thiazol-2-yl)-3,6-dihydropyrimidin-4-yl)methyl)-3-oxohexahydroimidazo[1,5-a]pyrazin-2(3H)-yl)pyridin-2-yl)oxy)benzoic acid] | 8.78 |
| COC(=O)C1=C(CN2CCN3C(=O)N(Cc4ccc(-c5ccc(C(=O)O)cc5)cc4)C[C@@H]3C2)NC(c2nccs2)=N[C@H]1c1ccc(F)cc1Cl [Example 10, 4′-(((S)-7-(((R)-6-(2-chloro-4-fluorophenyl)-5-(methoxycarbonyl)-2-(thiazol-2-yl)-3,6-dihydroprimidin-4-yl)methyl)-3-oxohexahydroimidazo[1,5-a]pyrazin-2(3H)-yl)methyl)-[1, 1′-diphenyl]-4-carboxylic acid] | 19.9 |
| COC(=O)C1=C(CN2CCN3C(=O)N(c4ccc(-c5ccc(C(=O)O)cc5)cc4)C[C@@H]3C2)NC(c2nccs2)=N[C@H]1c1ccc(F)cc1Cl [Example 12] | 13 |
| COC(=O)C1=C(CN2CCN3C(=O)N(c4cc(F)cc(Oc5ccc(C(=O)O)cc5F)c4)C[C@@H]3C2)NC(c2nccs2)=N[C@H]1c1ccc(F)cc1Cl [Example 13, 4-(3-((S)-7-(((R)-6-(2-chloro-4-fluorophenyl)-5-(methoxycarbonyl)-2-(thiazol-2-yl)-3,6-dihydropyrimidin-4-yl)methyl)-3-oxohexahydroimidazo[1,5-a]pyrazin-2(3H)-yl)-5-fluorophenoxy)-3-fluorobenzoic acid] | 22.1 |
| COC(=O)C1=C(CN2CCN3C(=O)N(c4ccc(Oc5ccc(C(=O)O)cc5F)cc4F)C[C@@H]3C2)NC(c2nccs2)=N[C@H]1c1ccc(F)cc1Cl [Example 14, 4-(4-((S)-7-(((R)-6-(2-chloro-4-fluorophenyl)-5-(methoxycarbonyl)-2-(thiazol-2-yl)-3,6-dihydropyrimidin-4-yl)methyl)-3-oxohexahydroimidazo[1,5-a]pyrazin-2(3H)-yl)-3-fluorophenoxy)-3-fluorobenzoic acid] | 22.7 |
| COC(=O)C1=C(CN2CCN3C(=O)N(c4nc(-c5ccc(C(=O)O)cc5)cs4)C[C@@H]3C2)NC(c2nccs2)=N[C@H]1c1ccc(F)cc1Cl [Example 15, 4-(2-((S)-7-(((R)-6-(2-chloro-4-fluorophenyl)-5-(methoxycarbonyl)-2-(thiazol-2-yl)-3,6-dihydropyrimidin-4-yl)methyl)-3-oxohexahydroimidazo[1,5-a]pyrazin-2(3H)-yl)thiazol-4-yl)benzoic acid] | 10.8 |
| COC(=O)C1=C(CN2CCN3C(=O)N(c4ccc(Oc5cccc(C(=O)O)c5)cn4)C[C@@H]3C2)NC(c2nccs2)=N[C@H]1c1ccc(F)cc1Cl [Example 16, 3-((6-((S)-7-(((R)-6-(2-chloro-4-fluorophenyl)-5-(methoxycarbonyl)-2-(thiazol-2-yl)-3,6-dihydropyrimidin-4-yl)methyl)-3-oxohexahydroimidazo[1,5-a]pyrazin-2(3H)-yl)pyridin-3-yl)oxy)benzoic acid] | 12 |
| COC(=O)C1=C(CN2CCN3C(=O)N(c4ccc(-c5ccc(C(C)(C)C(=O)O)cc5)cc4)C[C@@H]3C2)NC(c2nccs2)=N[C@H]1c1ccc(F)cc1Cl [Example 18, 2-(4′-((S)-7-(((R)-6-(2-chloro-4-fluorophenyl)-5-(methoxycarbonyl)-2-(thiazol-2-yl)-3,6-dihydropyrimidin-4-yl)methyl)-3-oxohexahydroimidazo[1,5-a]pyrazin-2(3H)-yl)-[1,1′-diphenyl]-4-yl)-2-methyl propionic acid] | 13 |
| COC(=O)C1=C(CN2CCN3C(=O)N(c4ccc(N5CCC(C(=O)O)CC5)cc4)C[C@@H]3C2)NC(c2nccs2)=N[C@H]1c1ccc(F)cc1Cl [Example 21, 1-(4-((S)-7-(((R)-6-(2-chloro-4-fluorophenyl)-5-(methoxycarbonyl)-2-(thiazol-2-yl)-3,6-dihydropyrimidin-4-yl)methyl)-3-oxohexahydroimidazo[1,5-a]pyrazin-2(3H)-yl)phenyl) piperidine-4-carboxylic acid] | 5 |
| COC(=O)C1=C(CN2CCN3C(=O)N(c4ccc(C5(C(=O)O)CC5)cc4)C[C@@H]3C2)NC(c2nccs2)=N[C@H]1c1ccc(F)cc1Cl [Example 27, 1-(4-((S)-7-(((R)-6-(2-chloro-4-fluorophenyl)-5-(methoxycarbonyl)-2-(thiazol-2-yl)-3,6-dihydropyrimidin-4-yl)methyl)-3-oxohexahydroimidazo[1,5-a]pyrazin-2(3H)-yl)phenyl)cyclopropane carboxylic acid] | 10 |
| COC(=O)C1=C(CN2CCN3C(=O)N(c4ccc(C5(C(=O)O)CCC5)cc4)C[C@@H]3C2)NC(c2nccs2)=N[C@H]1c1ccc(F)cc1Cl [Example 28, 1-(4-((S)-7-(((R)-6-(2-chloro-4-fluorophenyl)-5-(methoxycarbonyl)-2-(thiazol-2-yl)-3,6-dihydropyrimidin-4-yl)methyl)-3-oxohexahydroimidazo[1,5-a]pyrazin-2(3H)-yl)phenyl)cyclobutane carboxylic acid] | 4 |
| COC(=O)C1=C(CN2CCN3C(=O)N(c4ccc(C5(C(=O)O)CCCC5)cc4)C[C@@H]3C2)NC(c2nccs2)=N[C@H]1c1ccc(F)cc1Cl [Example 29, 1-(4-((S)-7-(((R)-6-(2-chloro-4-fluorophenyl)-5-(methoxycarbonyl)-2-(thiazol-2-yl)-3,6-dihydroprimidin-4-yl)methyl)-3-oxohexahydroimidazo[1,5-a]pyrazin-2(3H)-yl)phenyl) cyclopentane carboxylic acid] | 6 |
| COC(=O)C1=C(CN2CCN3C(=O)N(c4ccc(C5(C(=O)O)CCCCC5)cc4)C[C@@H]3C2)NC(c2nccs2)=N[C@H]1c1ccc(F)cc1Cl [Example 30, 1-(4-((S)-7-(((R)-6-(2-chloro-4-fluorophenyl)-5-(methoxycarbonyl)-2-(thiazol-2-yl)-3,6-dihydropyrimidin-4-yl)methyl)-3-oxohexahydroimidazo[1,5-a]pyrazin-2(3H)-yl)phenyl) cyclohexanecarboxylic acid] | 9 |
